Patent publication US10359701B2, “Material for forming underlayer film for lithography, composition for forming underlayer film for lithography, underlayer film for lithography and pattern forming method” (Mitsubishi Gas Chemical Company, Inc., priority 2015, dated 2019)

Key:
[1] = Solubility: amount of compound dissolved in PGMEA at 23° C.
Method: The amount of the compound dissolved in propylene glycol monomethyl ether acetate (PGMEA) was measured at 23° C., and the results were evaluated according to the following criteria.
Evaluation A: 10% by mass or more
Evaluation B: less than 10% by mass

[2] = Thermogravimetric measurement (TG) of the synthesized compound; format: physicochemical

Row | Structure (SMILES) | solubility in PGMEA [1] [% by mass] | solubility in PGMEA (Evaluation) [1] | 20% thermal weight loss temperature [2] [°C]
1 | N#COc1ccc(C(c2ccccc2)c2ccc(OC#N)cc2)cc1 [B-CN, bis(4-cyanatophenyl)phenylmethane] | ≥ 10 | A (10% by mass or more) | ≥ 400
2 | N#COc1ccc(-c2ccc(OC#N)c(C(c3ccc(-c4ccccc4)cc3)c3cc(-c4ccc(OC#N)cc4)ccc3OC#N)c2)cc1 [BiF-CN, bis(4,4′-cyanatobiphenyl) biphenylmethane] | ≥ 10 | A (10% by mass or more) | ≥ 400
